Test results as given in PMC8187357 (Communications Biology, 2021).
“And” between values parts separate entries of the source, which are not always exact repeats. Equal values may be shown once. “Also recorded” adds a separate entry of the source.

Tests used:
[1] = tested on: Neurokinin NK1, NK2, NK3 (antagonist); assay: CEREP 80 panel binding: Neurokinin; details: 10 µM
Method: (§1) CEREP 80 panel assay was carried out by Eurofins Cerep Panlabs facility at France. A series of binding assays was carried out to understand the off-target toxicity of CA-170. CA-170 was tested at 10 μM test concentration in duplicates. Compound binding was calculated as a % inhibition of the binding of a radioactively labeled ligand specific for each target. In each experiment the respective reference compound was tested concurrently with CA-170, and the data were compared with historical values determined at Eurofins. The experiment was accepted in accordance with Eurofins validation standard operating procedure. The results are expressed as a percent of control specific binding; (measured specific binding / control specific binding) × 100 and as a percent inhibition of control specific binding; 100−(measured specific binding / control specific binding) × 100 obtained in the presence of CA-170. The IC50 values (concentration causing a half-maximal inhibition of control specific binding) and Hill coefficients (nH) were determined by non-linear regression analysis of the competition curves generated with mean replicate values using Hill equation curve fitting.

[2] = target: T1, full-length human PD-L1 overexpressed in CHO-K1 cells (Homo sapiens, UniProt Q9NZQ7); assay: Cellular NMR (T2) binding, PD-L1 overexpressing CHO-K1 cells; details: for I/I0 / T2: trials 1-3
T1 construct: plasmid (pLVX puro-PD-L1; full-length human PD-L1); expressed in transfected cells; host or cells: CHO-K1 (lentiviral transduction)
Method: HEK293T cells were transfected with plasmid (pLVX puro-PD-L1; full-length human PD-L1) using Lenti-X packaging single shots (Takara Bio, Cat. Nos. 631275) as per the recommended kit protocol in order to generate lentiviral particles. The supernatant collected after 48 h containing the lentiviral particles was used for lentiviral transduction of CHO-K1 cells. The expression of PD-L1 on the CHO-K1 cells was determined by flow cytometry. Limiting dilution cloning was performed to isolate single clones of CHO-K1 cells expressing high levels of PD-L1.
PD-L1 transfected CHO-K1 cells were cultured in Ham’s F12 K medium (Cat#21127-022, Gibco) containing penicillin & streptomycin antibiotic solution and 10% FBS (cat#SH30071-03, HyClone) along with 4 µg/mL of puromycin (Cat#A11138-03, Gibco), and were grown at 37 °C, 5% CO2 in a humidified atmosphere in tissue culture treated flask. 80–90% confluent cells were detached with PBS containing 2 mM EDTA, counted and washed twice with phosphate-buffered saline, pH 7.4 and re-suspended in PBS(cat#14190-144 Gibco) at a density of 8 million cells per mL. The cell suspension in PBS was transferred in a 5 mm Norell NMR tube containing 5% D2O and NMR experiments were performed under ligand titration. Cells remained viable under these experimental conditions as assessed by Trypan Blue staining method.
NMR experiments were carried out using Bruker 800 MHz NMR spectrometer fitted with 5 mm TCI cryoprobe. The experiment was performed over 4 × 10^6 cells in 95% 1 X PBS, pH 7.4, after adding 5% (v/v) D2O at constant temperature 298 K employing the pulse sequence shown in Supplementary Fig. 1a. The FID obtained was processed employing TOPSPIN software version 3.5. The interaction studies of CA-170 and overexpressed cells were carried out using a two-point HSQC method by recording the first FID. Briefly, during the transfer of polarization from ^1H to ^13C in the forward INEPT part of the 2D [^13C, ^1H] HSQC experiment, an additional delay of 16 ms is introduced on the proton channel during which the signal decays due to transverse relaxation. A second experiment is recorded with this delay set to […], the experimental parameters used to record these two spectra are given in Supplementary Table 7. A representative NMR spectrum of superimposed first FID of modified 2D [^13C, ^1H] HSQC of CA-170 treatment with PD-L1 overexpressed CHO-K1 cells is shown in Supplementary Fig. 1b.
The signal at any point of time is related to the initial intensity as follows. I=Ioexp(−Δt/T2) Where Δt is the difference between initial and final time points and I and Io are the final and initial intensity respectively. The transverse relaxation time (T2) of the ligand protons is calculated from the signal intensity ratio obtained from the above experiments by using the following equation which can be obtained from the above relation (Supplementary Table 8). T2=Relaxationdelay(τ)/−log(I/I0) where I = Area of the peak with delay (16 ms delay); I0 = Area of the peak without delay (16 μs delay).

[3] = tested on: Amine transporters DA, NE, 5HT; assay: CEREP 80 panel binding: Amine transporters; details: 10 µM
Method: as §1

MC38 colon carcinoma = assay: MC38 tumors in immunodeficient SCID beige mice; assay type: in vivo, mouse; details: for Individual tumor volumes: MC-38 in SCID beige mice, 10mg/kg, 10 mg/kg
Method: For MC38 syngeneic colon carcinoma subcutaneous model, 0.5 × 10^6 MC38 cells (Source: NCI/NIH, kind gift from Dr. Michael Pollack) were injected subcutaneously to the left flank of the C57B6 mouse (In-house) or SCID Beige mice (Source: Harlan, France) on day 1 and dosing was initiated when average tumor volume reached ~100 mm^3. Animals were randomized based on tumor volumes and treated with either a vehicle control or CA-170 at indicated doses for 14 days. Anti-PD1 antibody (Clone J43 from BioXcel) was dosed intraperitoneally at 100 µg/animal once every week. Treatment efficacy was assessed in terms of the effects of the test substances on the tumor volumes of treated mice relative to vehicle-treated mice. Tumor growth curves of test and control groups using the mean tumor volumes were drawn, percent tumor growth inhibition (%TGI) […].

[4] = CA-170 5.0 µM, PD-L1 overexpressed CHO-K1
[5] = CA-170 7.5 μM, PD-L1 Overexpressed CHO-K1
[6] = CA-170 10.0 μM, PD-L1 Overexpressed CHO-K1
[7] = CA-170 15.0 μM, PD-L1 Overexpressed CHO-K1
[8] = CA-170 20.0 μM, PD-L1 Overexpressed CHO-K1
[9] = CA-170 40.0 μM, PD-L1 Overexpressed CHO-K1

T1 sequence (Q9NZQ7 19-290): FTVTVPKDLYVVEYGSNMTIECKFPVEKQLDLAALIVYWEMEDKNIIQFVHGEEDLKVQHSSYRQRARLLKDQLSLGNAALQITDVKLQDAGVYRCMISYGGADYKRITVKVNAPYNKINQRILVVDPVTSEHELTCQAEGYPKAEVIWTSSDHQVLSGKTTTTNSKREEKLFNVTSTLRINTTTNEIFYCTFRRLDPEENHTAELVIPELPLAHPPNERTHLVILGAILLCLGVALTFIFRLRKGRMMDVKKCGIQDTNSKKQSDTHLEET

C[C@@H](O)[C@H](NC(=O)N[C@@H](CC(N)=O)c1nc([C@@H](N)CO)no1)C(=O)O [CA-170]
% Inhibition of Control Specific Binding [1]: ≤ 6%
I/I0 [2, 4]: 0.34 and 0.35
T2 [2, 4]: 29.67 mS and 35.08 mS and 33.97 mS
I/I0 [2, 5]: 0.43 and 0.4 and 0.49
T2 [2, 5]: 43.70 mS and 51.60 mS and 41.00 mS
I/I0 [2, 6]: 0.45 and 0.47 and 0.39
T2 [2, 6]: 46.10 mS and 48.48 mS and 38.70 mS
I/I0 [2, 7]: 0.55 and 0.48 and 0.49
T2 [2, 7]: 61.50 mS and 50.00 mS and 52.00 mS
I/I0 [2, 8]: 0.57 and 0.53 and 0.51
T2 [2, 8]: 66.12 mS and 58.18 mS and 55.36 mS
I/I0 [2, 9]: 0.58 and 0.55 and 0.57
T2 [2, 9]: 67.51 mS and 61.50 mS and 66.67 mS
binding to PD-L1 overexpressed in the cellular context (in words) ([2]; cell-based NMR): specific interaction of CA-170 to PD-L1
% Inhibition of Control Specific Binding [3]: ≤ 1%
Individual tumor volumes (MC38 colon carcinoma; day 0 of treatment): 18.9 mm3 and 19.8 mm3 and 20.5 mm3 and 23 mm3 and 24.3 mm3 and 24.4 mm3 and 27.8 mm3 and 29.3 mm3 and 36.6 mm3 and 38.8 mm3 and 45.9 mm3
Individual tumor volumes (MC38 colon carcinoma; day 4 of treatment): 165.2 mm3 and 101 mm3 and 33 mm3 and 98.6 mm3 and 101.4 mm3 and 42.7 mm3 and 80.2 mm3 and 120.3 mm3 and 117 mm3 and 120.8 mm3 and 58.8 mm3
Individual tumor volumes (MC38 colon carcinoma; day 6 of treatment): 428.8 mm3 and 320.3 mm3 and 190.1 mm3 and 337.3 mm3 and 331.1 mm3 and 174.3 mm3 and 206.7 mm3 and 322.4 mm3 and 214 mm3 and 233.5 mm3 and 207.9 mm3
Individual tumor volumes (MC38 colon carcinoma; day 8 of treatment): 764.7 mm3 and 861.8 mm3 and 304.4 mm3 and 735.9 mm3 and 484.9 mm3 and 297 mm3 and 527.3 mm3 and 483.7 mm3 and 349.6 mm3 and 472.6 mm3 and 369.9 mm3
Individual tumor volumes (MC38 colon carcinoma; day 11 of treatment): 1229.8 mm3 and 1458.4 mm3 and 838.9 mm3 and 1334.2 mm3 and 1120.4 mm3 and 912.1 mm3 and 1214.1 mm3 and 1274.2 mm3 and 788.4 mm3 and 1032.8 mm3 and 931.5 mm3
Individual tumor volumes (MC38 colon carcinoma; day 13 of treatment): 1679 mm3 and 1958.7 mm3 and 1062 mm3 and 1678.6 mm3 and 1535.8 mm3 and 938 mm3 and 1760.9 mm3 and 1177.1 mm3 and 1641.5 mm3 and 1410.5 mm3
tumor growth vs vehicle in immunodeficient mice (in words) (MC38 colon carcinoma; SCID beige mice, MC-38, 10 mg/kg/day for 14 days): no difference in the tumor volumes; also recorded: no statistically significant difference
